Assay [1] relates to human coronavirus (HCoV) 229E. Put plainly: microbe, parasite or virus in culture. In kind it is cell-based, human coronavirus 229E.
Assay [2] deals with SARS-CoV-2 replicon. Kind of assay: microbe, parasite or virus in culture. In kind it is cell-based.
Where [3] appears, read: unidentified human coronavirus, 72 h, MRCS cells, HCoV 229E, 3 days, CellTiter Glo, read-out: 229E CPE EC50.
Setting [4] is: Severe acute respiratory syndrome coronavirus 2, Huh-7, 24 h; read-out: Replicon EC50.
[5] abbreviates: MRCS cells, HCoV 229E, 3 days, CellTiter Glo, read-out: 229E CPE EC50.

What is called EC50 is the concentration that produces a half-maximal response.

Structures are written as SMILES. Where “and” joins values, the source holds several entries; their conditions need not be identical. Equal entries are not always repeated. Where two headings read alike, the source gives them in different places.

As to `CC(C)(C)OC(=O)N[C@H](C(=O)N1C[C@H]2[C@@H]([C@H]1C(=O)N[C@H](C#N)C[C@@H]1CCNC1=O)C2(C)C)C(C)(C)C` [Compound 12], the 50% effective concentration (EC50) in assay [1] (unidentified human coronavirus, 72 h, read-out: 229E CPE EC50, MRCS cells, HCoV 229E, 3 days, CellTiter Glo) is 849 nM; in assay [2] (Severe acute respiratory syndrome coronavirus 2, Huh-7, 24 h, read-out: Replicon EC50) it was 106 nM; in assay [2] (read-out: Replicon EC50), 119 nM.
As for `CC(C)(C)[C@H](NC(=O)NC1(CS(=O)(=O)C(C)(C)C)CCCCC1)C(=O)N1C[C@H]2[C@@H]([C@H]1C(=O)N[C@H](C#N)C[C@@H]1CCNC1=O)C2(C)C` [Compound 16], the EC50 in assay [1] (setting [3]) was 16800 nM; in assay [2] (setting [4]) it was 1290 nM; in assay [2] (read-out: Replicon EC50), 1880 nM and 2040 nM.
Take `CC(C)(C)[C@H](NC(=O)C(c1ccccc1)c1ccccc1)C(=O)N1C[C@H]2[C@@H]([C@H]1C(=O)N[C@H](C#N)C[C@@H]1CCNC1=O)C2(C)C` [Compound 18, (1R,2S,5S)—N—((S)-1-cyano-2-((S)-2-oxopyrrolidin-3-yl)ethyl)-3-((S)-2-(2,2-diphenylacetamido)-3,3-dimethylbutanoyl)-6,6-dimethyl-3-azabicyclo[3.1.0]hexane-2-carboxamide]: the results for the EC50 in assay [1] (setting [3]), in assay [2] (setting [4]) and in assay [2] (read-out: Replicon EC50) were 850 nM, 1260 nM and 1410 nM, respectively.
The matching figures for `CC(C)(C)[C@H](NC(=O)C12CC(C1)C2)C(=O)N1C[C@H]2[C@@H]([C@H]1C(=O)N[C@H](C#N)C[C@@H]1CCNC1=O)C2(C)C` [Compound 20]: 2740 nM, 186 nM and 232 nM.
Regarding `CC(C)(C)[C@H](NC(=O)[C@H]1CCO1)C(=O)N1C[C@H]2[C@@H]([C@H]1C(=O)N[C@H](C#N)C[C@@H]1CCNC1=O)C2(C)C` [Compound 22], the EC50 in assay [1] (setting [3]) turned out to be 19300 nM; in assay [2] (setting [4]) it was 3000 nM.
The matching figures for `Cn1c(C(=O)N[C@H](C(=O)N2C[C@H]3[C@@H]([C@H]2C(=O)N[C@H](C#N)C[C@@H]2CCNC2=O)C3(C)C)C(C)(C)C)cc2ccccc21` [Compound 27]: 963 nM and 964 nM.
The matching figures for `CC(C)(C)[C@H](NC(=O)c1cnc2[nH]ccc2c1)C(=O)N1C[C@H]2[C@@H]([C@H]1C(=O)N[C@H](C#N)C[C@@H]1CCNC1=O)C2(C)C` [Compound 32]: 13100 nM and 3150 nM.
As to `CC(C)(C)[C@H](NC(=O)C12CC(F)(C1)C2)C(=O)N1C[C@H]2[C@@H]([C@H]1C(=O)N[C@H](C#N)C[C@@H]1CCNC1=O)C2(C)C` [Compound 34], the EC50 in assay [1] (setting [3]) is 534 nM; in assay [2] (setting [4]) it was 270 nM; in assay [2] (read-out: Replicon EC50) it was 300 nM and 420 nM.
Regarding `CN(C)S(=O)(=O)N[C@H](C(=O)N1C[C@H]2[C@@H]([C@H]1C(=O)N[C@H](C#N)C[C@@H]1CCNC1=O)C2(C)C)C(C)(C)C` [Compound 47, (1R,2S,5S)—N—((S)-1-cyano-2-((S)-2-oxopyrrolidin-3-yl)ethyl)-3-((S)-2-((N,N-dimethylsulfamoyl)amino)-3,3-dimethylbutanoyl)-6,6-dimethyl-3-azabicyclo[3.1.0]hexane-2-carboxamide], the concentration for a half-maximal effect (EC50) stood at 7320 nM in assay [1] (setting [5]) and 6190 nM in assay [1] (setting [3]).
The matching figures for `CC(C)(C)[C@H](NS(=O)(=O)N1CCOCC1)C(=O)N1C[C@H]2[C@@H]([C@H]1C(=O)N[C@H](C#N)C[C@@H]1CCNC1=O)C2(C)C` [Compound 49]: 5780 nM and 3880 nM.
Regarding `C=C(F)C(=O)N[C@H](C(=O)N1C[C@H]2[C@@H]([C@H]1C(=O)N[C@H](C#N)C[C@@H]1CCNC1=O)C2(C)C)C(C)(C)C` [Compound 66], the EC50 was found to be 1400 nM in assay [1] (setting [5]) and 1080 nM in assay [1] (setting [3]).
The matching figures for `CC(C)(C)[C@H](NC(=O)C(Cl)(Cl)C(F)(F)F)C(=O)N1C[C@H]2[C@@H]([C@H]1C(=O)N[C@H](C#N)C[C@@H]1CCNC1=O)C2(C)C` [Compound 71]: 321 nM and 302 nM.
Consider `CCNC(=S)N[C@H](C(=O)N1C[C@H]2[C@@H]([C@H]1C(=O)N[C@H](C#N)C[C@@H]1CCNC1=O)C2(C)C)C(C)(C)C` [Compound 72], for which the EC50 is 890 nM in assay [1] (setting [5]) and 718 nM in assay [1] (setting [3]).
The matching figures for `CC(C)(C)[C@H](NC(=O)Cc1ccc2c(c1)CCC2)C(=O)N1C[C@H]2[C@@H]([C@H]1C(=O)N[C@H](C#N)C[C@@H]1CCNC1=O)C2(C)C` [Compound 82]: 515 nM and 449 nM.
The matching figures for `CC(C)(C)[C@H](NS(=O)(=O)c1cccc2ccccc12)C(=O)N1C[C@H]2[C@@H]([C@H]1C(=O)N[C@H](C#N)C[C@@H]1CCNC1=O)C2(C)C` [Compound 85]: 368 nM and 238 nM.
The matching figures for `CC(C)(C)[C@H](NS(=O)(=O)c1cccnc1)C(=O)N1C[C@H]2[C@@H]([C@H]1C(=O)N[C@H](C#N)C[C@@H]1CCNC1=O)C2(C)C` [Compound 93]: 4380 nM and 3060 nM.
Consider `Cc1ccc(S(=O)(=O)N[C@H](C(=O)N2C[C@H]3[C@@H]([C@H]2C(=O)N[C@H](C#N)C[C@@H]2CCNC2=O)C3(C)C)C(C)(C)C)cc1` [Compound 96], for which the EC50 in assay [1] (setting [5]) was determined as 339 nM; in assay [1] (setting [3]), 246 nM.
The matching figures for `CC(C)(C)[C@H](NS(=O)(=O)c1cccs1)C(=O)N1C[C@H]2[C@@H]([C@H]1C(=O)N[C@H](C#N)C[C@@H]1CCNC1=O)C2(C)C` [Compound 100]: 636 nM and 432 nM.
The matching figures for `CC(C)(C)[C@H](NS(=O)(=O)c1ccc2ccccc2c1)C(=O)N1C[C@H]2[C@@H]([C@H]1C(=O)N[C@H](C#N)C[C@@H]1CCNC1=O)C2(C)C` [Compound 102]: 125 nM and 84 nM.
Turning to `CC(C)(C)[C@H](NS(=O)(=O)c1ccc(F)s1)C(=O)N1C[C@H]2[C@@H]([C@H]1C(=O)N[C@H](C#N)C[C@@H]1CCNC1=O)C2(C)C` [Compound 113], the EC50 in assay [1] (setting [3]) turned out to be 388 nM.
With `CC(C)(C)[C@H](NS(=O)(=O)c1sccc1Cl)C(=O)N1C[C@H]2[C@@H]([C@H]1C(=O)N[C@H](C#N)C[C@@H]1CCNC1=O)C2(C)C` [Compound 114], the EC50 in assay [1] (setting [5]) came out at 133 nM; in assay [1] (setting [3]) it was 67 nM.
With `Cc1ccc(S(=O)(=O)N[C@H](C(=O)N2C[C@H]3[C@@H]([C@H]2C(=O)N[C@H](C#N)C[C@@H]2CCNC2=O)C3(C)C)C(C)(C)C)s1` [Compound 118], the EC50 in assay [1] (setting [3]) worked out at 322 nM.
For `CC(C)(C)[C@H](NS(=O)(=O)c1ccc(C2CC2)cc1)C(=O)N1C[C@H]2[C@@H]([C@H]1C(=O)N[C@H](C#N)C[C@@H]1CCNC1=O)C2(C)C` [Compound 121], the EC50 in assay [1] (setting [5]) was determined as 66 nM; in assay [1] (setting [3]) it was 56 nM.
For `COc1ccsc1S(=O)(=O)N[C@H](C(=O)N1C[C@H]2[C@@H]([C@H]1C(=O)N[C@H](C#N)C[C@@H]1CCNC1=O)C2(C)C)C(C)(C)C` [Compound 127], in assay [1] (setting [3]), the concentration for a half-maximal effect (EC50) was determined as 711 nM.
For the molecule `CC(C)(C)[C@H](NC(=O)C(F)(F)C(F)(F)C(F)(F)F)C(=O)N1C[C@H]2[C@@H]([C@H]1C(=O)N[C@H](C#N)C[C@@H]1CCNC1=O)C2(C)C` [Compound 133], the EC50 in assay [1] (setting [5]) is 160 nM and 164 nM; in assay [1] (setting [3]) it was 122 nM.
On to `COc1ccc(S(=O)(=O)N(C)[C@H](C(=O)N2C[C@H]3[C@@H]([C@H]2C(=O)N[C@H](C#N)C[C@@H]2CCNC2=O)C3(C)C)C(C)(C)C)cc1` [Compound 137], for which the half-maximal effective concentration (EC50) in assay [1] (setting [3]) amounted to 4840 nM.

These data come from patent US11760722B2 (priority 2022, dated 2023).
